Assay results from US20120172228A1, “ALCOHOL ALKOXYLATES AS ADJUVANTS FOR AGROCHEMICAL FORMULATIONS” (SYNGENTA CROP PROTECTION, LLC, priority 2009, published 2012).

What was measured:
Format in all cases: in vivo
[1] = system: xanthium strumarium (XANST), setaria viridis (SETVI), abutilon theophrasti (ABUTH), chenopodium album (CHEAL); assay: Adjuvant with herbicide fomesafen, track sprayer, mean across four weed species; conditions: fomesafen 60 or 120 g/ha; butylene oxide adjuvants 0.2%, TEHP and Turbocharge 0.5%; 7 and 13 days
Procedure: In this example Sample 13 from Table 1 was compared to the oil adjuvant blend Turbocharge™. The herbicide fomesafen was applied to the weed species xanthium strumarium (XANST), setaria viridis (SETVI), abutilon theophrasti (ABUTH), and chenopodium album (CHEAL) at rates of 60 or 120 grams per hectare, using a laboratory track sprayer. […] Four effects were evaluated: pesticide rate (2 levels), adjuvant type (two levels), weed species (four levels) and days after application (three levels). A standard simple linear model was constructed to judge the significance of these effects. […] A model was fitted using multiple linear regression using the statistics package JMP (SAS group). The effect of each adjuvant was pulled out from the model and the least significant differences evaluated using a Student's t method. In further examples, where a greater number than two adjuvants were compared, Tukey's HSD method was used. […]
In this example the rate response of the butylene oxide adjuvant number 13 of Table 1 was measured to display the excellent performance of this adjuvant at very low rates. compared to the adjuvant Brij™96V. […]
In this example the rate response of the butylene oxide sample 27 of Table 1 was measured, displaying the excellent performance of this adjuvant compared to the commercial adjuvant Turbocharge™, used at a rate of 0.5% by volume. […]

[2] = system: lolium perenne (LOLPE), alopecurius myosuirides (ALOMY), setaria viridis (SETVI), avena fatua (AVEFA); assay: Adjuvant with herbicide pinoxaden, track sprayer, mean across four weed species; conditions: pinoxaden 7.5 or 15 g/ha, 14 and 21 days
lolium perenne (LOLPE) = assay: Adjuvant with herbicide pinoxaden on LOLPE; conditions: 14 and 21 days
Procedure: In this example the response of the butylene oxide adjuvant 13 of Table 1 was measured at an application rate of 0.2% of the volume of the spray solution used. It was compared to the adjuvant tris 2-ethylhexyl phosphate [TEHP], which was applied at the higher rate of 0.5% by volume. The herbicide pinoxaden was applied at rates of 7.5, 11.25 or 15 grams per hectare by a laboratory track sprayer to the weed species lolium perenne (LOLPE), alopecurius myosuirides (ALOMY), and avena fatua (AVEFA). In each case the experiments were replicated four times and the percentage damage to the weeds was assessed visually at time periods of 14 and 21 days after application.

avena fatua (AVEFA) = assay: Adjuvant with herbicide pinoxaden on AVEFA; conditions: 14 and 21 days
Procedure: In this example Sample 13 from Table 1 was compared to the oil adjuvant blend Turbocharge™. The herbicide fomesafen was applied to the weed species xanthium strumarium (XANST), setaria viridis (SETVI), abutilon theophrasti (ABUTH), and chenopodium album (CHEAL) at rates of 60 or 120 grams per hectare, using a laboratory track sprayer. Each experiment was replicated four times and the percentage damage to the weeds was assessed visually at time periods of 7, 14 and 21 days after application. Each adjuvant was applied at a rate of 0.5% of the volume of the spray water. Four effects were evaluated: pesticide rate (2 levels), adjuvant type (two levels), weed species (four levels) and days after application (three levels). […] The effect of each adjuvant was pulled out from the model and the least significant differences evaluated using a Student's t method. […]
In this example the responses of the adjuvants 13, 17, 19, 21, 22 and 23 were measured at an application rate of 0.2% of the volume of the spray solution used. […] In each case the experiments were replicated four times and the percentage damage to the weeds was assessed visually at time periods of 14 and 21 days after application.
In this example the response of butylene oxide sample 27 of Table 1 was measured at an application rate of 0.2% of the volume of the spray solution used. […]

[3] = pinoxaden 7.5, 11.25 or 15 g/ha, Sample 13 0.2%, TEHP 0.5%
[4] = pinoxaden 7.5 or 15 g/ha, butylene oxide adjuvants 0.2%, TEHP 0.5% v/v

CCCCC(CC)COP(=O)(OCC(CC)CCCC)OCC(CC)CCCC (stereo not shown) [TEHP, tris 2-ethylhexyl phosphate]
Mean kill across weeds (%) [1]: 72.7% | Mean kill (%) ([2]; Sample 28 0.2%, TEHP 0.5%): 92.6% | mean efficacy (percentage damage to the weeds), All weeds ([2]; butylene oxide adjuvants 0.2%, TEHP 0.5% v/v): 75.63; A % | mean efficacy (percentage damage to the weeds), LOLPE (lolium perenne (LOLPE); [3]): 58.06; A % | mean efficacy (percentage damage to the weeds), LOLPE (lolium perenne (LOLPE); [4]): 82.5; A % | mean efficacy (percentage damage to the weeds), AVEFA (avena fatua (AVEFA); [3]): 78.33; A % | mean efficacy (percentage damage to the weeds), AVEFA (avena fatua (AVEFA); [4]): 73.75; AB %
